Like-named read-outs stand apart in the source and are kept apart here.
Columns and labels:
[1] = system: narcosis; test: narcosis potentiating effect on mice, method of Kaergaard; assay type: in vivo; details: for ED50: Mus musculus, read-out: ED50 (narcosis potentiating effect)
Protocol: The narcosis potentiating effect was determined on mice by the method of Kaergaard (Arch. Int. Pharmacodyn. 2, 170/1967/).

[2] = system: carrageenin-provoked paw oedema; test: antiphlogistic (oedema-inhibiting) effect, carrageenin paw oedema on rats; assay type: in vivo; details: for ED30: Rattus norvegicus, read-out: ED30 (antiphlogistic effect); for Therapeutical index (antiphlogistic effect): carrageenin paw oedema
Protocol: The antiphlogistic (oedema-inhibiting) effect was tested on rats. 0.1 ml of a 1% carrageenin solution were injected into the plantar region of one of the hind paws. The volume of the paw was measured just before and 3 hours after the introduction of the oedema-provoking agent by a mercury plethysmometer.

[3] = in vivo; details: mouse, po
Protocol: The toxicity of the new compounds according to the invention was determined on mice after oral administration. The chemical names of the reference compounds are as follows: […]

[4] = system: acetic acid writhing; test: analgesic effect, acetic acid writhing test on mice; assay type: in vivo; details: for ED50: Mus musculus, read-out: ED50 (analgesic effect); for Therapeutical index (analgesic effect): writhing test
Protocol: The analgesic effect of the new compounds according to the invention was determined on mice by the acetic acid writhing test.

[5] = rats, dosage inhibiting inflammation by 30%, 3 hours after carrageenin
[6] = mice, oral, acetic acid given 1 h after treatment, writhings counted within 5 minutes

CC(=O)N1c2ccccc2-n2cnnc2N1C(C)=O [Example 1, 4,5-diacetyl-4,5-dihydro-s-triazolo-[3,4-c]benzo-as-triazine]
ED50 ([1]; mice, method of Kaergaard): 75 mg/kg
Therapeutical index (narcosis potentiating effect) ([1]; mice, method of Kaergaard): 15
ED30 [2, 5]: 110 mg/kg
Therapeutical index (antiphlogistic effect) ([2]; rats): 10
LD50 [3]: 1100 mg/kg

CCCc1c(O)n2c3nncn3c3ccccc3n2c1=O [Example 11, 1-oxo-3-hydroxy-2-n-propyl-pyrazolo[1,2-a]-s-triazolo-[3,4-c]benzo-as-triazine]
LD50 [3]: 2000 mg/kg

CCCC(C)(COC(N)=O)COC(N)=O [Meprobamate, 2-methyl-2-propyl-1,3-propanediol dicarbamate, reference compound]
ED50 [1]: 260 mg/kg
Therapeutical index (narcosis potentiating effect) ([1]; mice, method of Kaergaard): 4.2
LD50 [3]: 1100 mg/kg

CCC(=O)N1c2ccccc2-n2cnnc2N1C(=O)CC [Example 3, 4,5-dipropionyl-4,5-dihydro-s-triazolo[3,4-c]benzo-as-triazine]
ED50 ([1]; mice, method of Kaergaard): 80 mg/kg
Therapeutical index (narcosis potentiating effect) ([1]; mice, method of Kaergaard): 25
ED50 [4, 6]: 200 mg/kg
Therapeutical index (analgesic effect) ([4]; mice, oral): 10
LD50 [3]: 2000 mg/kg

CCCCC1C(=O)N(c2ccccc2)N(c2ccccc2)C1=O [Phenylbutazone, 4-butyl-1,2-diphenyl-3,5-pyrazolidinedione, reference compound]
ED30 [2, 5]: 90 mg/kg

CC(=O)Oc1ccccc1C(=O)O [Acetylsalicylic acid, reference compound]
ED30 ([2]; 3 h): 180 mg/kg
Therapeutical index (antiphlogistic effect) ([2]; rats): 8.33
LD50 [3]: 1500 mg/kg

CC(=O)Nc1ccc(O)cc1 [Paracetamol, N-(hydroxyphenyl)acetamide, reference compound]
ED50 ([4]; po): 180 mg/kg

CCC(=O)N1Nc2nncn2-c2ccccc21 [Example 4, 5-propionyl-4,5-dihydro-s-triazolo[3,4-c]benzo-as-triazine]
ED50 ([1]; mice, method of Kaergaard): 140 mg/kg
Therapeutical index (narcosis potentiating effect) ([1]; mice, method of Kaergaard): 13
ED30 [2, 5]: 22 mg/kg
Therapeutical index (antiphlogistic effect) ([2]; rats): 79.55
ED50 [4, 6]: 175 mg/kg
Therapeutical index (analgesic effect) ([4]; mice, oral): 10
LD50 [3]: 1750 mg/kg

CCC(=O)N1c2ccccc2-n2c(SC)nnc2N1C(=O)CC [Example 5, 1-methylthio-4,5-dipropionyl-4,5-dihydro-s-triazolo[3,4-c]benzo-as-triazin]
ED50 ([1]; mice, method of Kaergaard): 140 mg/kg
Therapeutical index (narcosis potentiating effect) ([1]; mice, method of Kaergaard): 7
ED50 [4, 6]: 100 mg/kg
Therapeutical index (analgesic effect) ([4]; mice, oral): 10
LD50 [3]: 1000 mg/kg
